“And” between values parts separate entries of the source, which are not always exact repeats. Identical values can stand only once.
Test system: 454973-116-R2-J3-PDC complex spheroid viability
Assay: Anticancer human tumor 454973-116-R2-J3-PDC patient-derived pancreatic carcinoma cell line growth inhibition [POLQ]
Settings: for viability, T/C: stronger effect = lower value
Protocol: Multicellular complex tumor spheroid response to Polymerase (POL) inhibitors (novobiocin, ART-558, RP6685) in combination with a variety of drugs and investigational agents in selected tumor cell lines
The POL inhibitors (novobiocin, ART-558, and RP6685) were evaluated both individually and in combination with standard of care and investigational anticancer small molecules within a complex spheroid model of solid tumors. . Complex spheroids include a stromal component modeled by human endothelial cells (HUVEC) and fibroblasts modeled by human mesenchymal stem cells (MSCs). The concentration ranges selected for each drug and investigational agent were based upon clinically achievable concentrations if the clinical Cmax of the agent was known.
Compounds. The drugs and investigational agents: novobiocin (NSC847541), ART-558 (NSC835418), RP-6685 (NSC848927), peposertib (NSC802822), ceralasertib (NSC780249), elimusertib (NSC800525), camonsertib (NSC841442), AZD-1390 (NSC803789), olaparib (NSC753686), talazoparib (NSC767125), rucaparib (NSC756644), sotorasib (NSC818433), MRTX-1133 (NSC836407), SN-38 (NSC673596), topotecan (NSC609699), epotoside (NSC141540), doxorubicin (NSC123127), gemcitabine (NSC613327), 5-fluorouracil (NSC19893), paclitaxel (NSC125973), vemurafenib (NSC761431), MSA-2 (NSC828583), SN-011 (NSC837082), adavosertib (NSC754352), prexasertib (NSC758257), carboplatin (NSC241240) and oxaliplatin (NSC266046), were obtained from the National Cancer Institute (NCI) Developmental Therapeutics Program Chemical Repository (21). The FDA-approved anticancer drug set is available from the Developmental Therapeutics Program at https://dtp.cancer.gov/organization/dscb/obtaining/. […] The stock solutions were prepared in dimethyl sulfoxide (DMSO, Sigma-Aldrich, St. Louis, MO, cat. D2650), except for the platinum compounds which were prepared in saline (Quality Biological, Gaithersburg, MD, cat. 114-055-101), at 800-fold the tested concentration and stored at -70 degrees C prior to their use. All drugs and investigational agents were tested over a range starting from a high concentration at or near the clinical Cmax and decreasing in half-log increments. If the clinical Cmax for an agent had not been determined, the highest concentration tested was 10 microM, except for SN-38, which was tested at a high concentration of 1 microM.
Cell Culture. All cells were maintained in an incubator at 37 degrees C and 5% CO2 with 95% humidity. The PDC lines were cultured according to standard operating procedures established by the NCI PDMR (https://pdmr.cancer.gov). Table 3 of the manuscript, lists the cell lines along with the number of the three cell types plated to form the mct-spheroids and media for tumor cell growth. After thawing, all PDC lines, except 997537-175-T-J1-PDC and 415267-285-R-J2-PDC, were cultured in Matrigel-coated flasks prepared with a working solution of 1X Ham's F-12 nutrient mix, without supplementation (Thermo Fisher Scientific, cat. 11765054), 100 U/mL penicillin-streptomycin (Thermo Fisher Scientific, cat. 15140122), and 2.5% Matrigel (Corning Inc., Corning, NY, cat. 354248) for the first three passages. The two PDC lines 997537-175-T-J1-PDC and 415267-285-R-J2-PDC were cultured on uncoated flasks. The 857933-349-R-J2-PDC line was cultured in 6C/Colon 1B media containing advanced DMEM/F-12 (Thermo Fisher Scientific, cat. 12634028), 10 mM HEPES (Thermo Fisher Scientific, cat. 15630080), 1X GlutaMAX supplement (Thermo Fisher Scientific, cat. 35050061), 0.1 mg/mL primocin (InvivoGen, San Diego, CA, cat. ant-pm-2), 10% defined fetal bovine serum, heat inactivated (HyClone Laboratories Inc., Logan, UT, cat. SH30070.03HI), 50% L-WRN conditioned media (ATCC, cat. CRL-3276), 1.25 mM N-Acetyl-L-cysteine (Sigma-Aldrich, cat. A9165), 10 mM nicotinamide (Sigma-Aldrich, cat. N0636), 1X B-27 supplement (Thermo Fisher Scientific, cat. 17504044), 1X N-2 supplement (Thermo Fisher Scientific, cat. […]

[1] = curve of first compound, second compound 0.0316 µM
[2] = curve of first compound, second compound 0.1 µM
[3] = curve of first compound, second compound 0.316 µM
[4] = curve of first compound, second compound 1 µM
[5] = curve of first compound, second compound 3.16 µM
[6] = curve of first compound, second compound 10 µM
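Further: spheroids exposed to drugs for seven days before measurement.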
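Wherever viability, T/C is given: percent viability relative to DMSO vehicle control wells taken as 100%.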

Question: What does the source list for CC(=O)O[C@H]1C(=O)[C@@]2(C)[C@H]([C@H](OC(=O)c3ccccc3)[C@]3(O)C[C@H](OC(=O)[C@H](O)[C@@H](NC(=O)c4ccccc4)c4ccccc4)C(C)=C1C3(C)C)[C@]1(OC(C)=O)CO[C@@H]1C[C@@H]2O + Nc1ccc(C#CCN(C(=O)Cc2ncc(C(F)(F)F)cc2C(F)(F)F)c2ccc(F)cc2)nn1?
Answer: IC50 [1]: < 9.49 nM; IC50 [2]: < 9.49 nM; IC50 [3]: < 9.49 nM; IC50 [4]: < 9.49 nM; IC50 [5]: < 9.49 nM; IC50 [6]: < 9.49 nM; viability, T/C (second compound 0.0316 µM, first compound 0.00949 µM): 6.03%; viability, T/C (second compound 0.0316 µM, first compound 0.03 µM): 5.37%; viability, T/C (second compound 0.0316 µM, first compound 0.0949 µM): 4.33%; viability, T/C (second compound 0.0316 µM, first compound 0.3 µM): 4.12%; viability, T/C (second compound 0.0316 µM, first compound 0.949 µM): 5.17%; viability, T/C (second compound 0.0316 µM, first compound 3 µM): 4.92%; viability, T/C (second compound 0.1 µM, first compound 0.00949 µM): 6.43%; viability, T/C (second compound 0.1 µM, first compound 0.03 µM): 5.72%; viability, T/C (second compound 0.1 µM, first compound 0.0949 µM): 5.37%; viability, T/C (second compound 0.1 µM, first compound 0.3 µM): 3.72%; viability, T/C (second compound 0.1 µM, first compound 0.949 µM): 4.36%; viability, T/C (second compound 0.1 µM, first compound 3 µM): 5.13%; viability, T/C (second compound 0.316 µM, first compound 0.00949 µM): 6.26%; viability, T/C (second compound 0.316 µM, first compound 0.03 µM): 5.71%; viability, T/C (second compound 0.316 µM, first compound 0.0949 µM): 3.79%; viability, T/C (second compound 0.316 µM, first compound 0.3 µM): 4.86%; viability, T/C (second compound 0.316 µM, first compound 0.949 µM): 4.32%; viability, T/C (second compound 0.316 µM, first compound 3 µM): 5.03%; viability, T/C (second compound 1 µM, first compound 0.00949 µM): 6.64%; viability, T/C (second compound 1 µM, first compound 0.03 µM): 7.67%; viability, T/C (second compound 1 µM, first compound 0.0949 µM): 5.72%; viability, T/C (second compound 1 µM, first compound 0.3 µM): 4.36%; viability, T/C (second compound 1 µM, first compound 0.949 µM): 4.31%; viability, T/C (second compound 1 µM, first compound 3 µM): 4.88%; viability, T/C (second compound 3.16 µM, first compound 0.00949 µM): 6.84%; viability, T/C (second compound 3.16 µM, first compound 0.03 µM): 4.76%; viability, T/C (second compound 3.16 µM, first compound 0.0949 µM): 4.25%; viability, T/C (second compound 3.16 µM, first compound 0.3 µM): 4.05%; viability, T/C (second compound 3.16 µM, first compound 0.949 µM): 5.59%; viability, T/C (second compound 3.16 µM, first compound 3 µM): 4.37%; viability, T/C (second compound 10 µM, first compound 0.00949 µM): 6.5%; viability, T/C (second compound 10 µM, first compound 0.03 µM): 4.13%; viability, T/C (second compound 10 µM, first compound 0.0949 µM): 4.66%; viability, T/C (second compound 10 µM, first compound 0.3 µM): 4.52%; viability, T/C (second compound 10 µM, first compound 0.949 µM): 4.25%; viability, T/C (second compound 10 µM, first compound 3 µM): 4.89%

Question: For C=CC(=O)N1CCN(c2nc(=O)n(-c3c(C)ccnc3C(C)C)c3nc(-c4c(O)cccc4F)c(F)cc23)C(C)C1 (centres undefined), which viability, T/C (compound 0.0316 µM) is on record?
Answer: The viability, T/C was 109% (2×) and 106%.

Question: What about the viability, T/C (compound 0.1 µM) of the same compound?
Answer: The viability, T/C was 97% and 98.6% and 100%.

Question: What about the viability, T/C (compound 0.316 µM) of the same compound?
Answer: The viability, T/C was 105% and 112% and 106%.

Question: What about the viability, T/C (compound 1 µM) of the same compound?
Answer: The viability, T/C was 104% and 113% and 107%.

Question: What about the viability, T/C (compound 3.16 µM) of the same compound?
Answer: The viability, T/C was 108% and 104% and 114%.

Question: What about the viability, T/C (compound 10 µM) of the same compound?
Answer: Its viability, T/C is 107% and 113% and 112%.

Question: What about the IC50 (curve of compound) of the same compound?
Answer: The IC50 was over 10000 nM.

Question: Which results are given for CC1COCCN1c1cc(C2(O)CC3CCC(C2)O3)c2cnn(-c3ccn[nH]3)c2n1 (centres undefined) + Nc1ccc(C#CCN(C(=O)Cc2ncc(C(F)(F)F)cc2C(F)(F)F)c2ccc(F)cc2)nn1?
Answer: IC50 [1]: 120 nM; IC50 [2]: 114 nM; IC50 [3]: 86.8 nM; IC50 [4]: 95.2 nM; IC50 [5]: 104 nM; IC50 [6]: 108 nM; viability, T/C (second compound 0.0316 µM, first compound 0.0316 µM): 83.7%; viability, T/C (second compound 0.0316 µM, first compound 0.1 µM): 55.6%; viability, T/C (second compound 0.0316 µM, first compound 0.316 µM): 21%; viability, T/C (second compound 0.0316 µM, first compound 1 µM): 12.5%; viability, T/C (second compound 0.0316 µM, first compound 3.16 µM): 16.3%; viability, T/C (second compound 0.0316 µM, first compound 10 µM): 10.3%; viability, T/C (second compound 0.1 µM, first compound 0.0316 µM): 84.1%; viability, T/C (second compound 0.1 µM, first compound 0.1 µM): 54%; viability, T/C (second compound 0.1 µM, first compound 0.316 µM): 19.8%; viability, T/C (second compound 0.1 µM, first compound 1 µM): 12.3%; viability, T/C (second compound 0.1 µM, first compound 3.16 µM): 15.2%; viability, T/C (second compound 0.1 µM, first compound 10 µM): 13%; viability, T/C (second compound 0.316 µM, first compound 0.0316 µM): 87.1%; viability, T/C (second compound 0.316 µM, first compound 0.1 µM): 44.8%; viability, T/C (second compound 0.316 µM, first compound 0.316 µM): 18.7%; viability, T/C (second compound 0.316 µM, first compound 1 µM): 11.5%; viability, T/C (second compound 0.316 µM, first compound 3.16 µM): 14.3%; viability, T/C (second compound 0.316 µM, first compound 10 µM): 11.2%; viability, T/C (second compound 1 µM, first compound 0.0316 µM): 80.4%; viability, T/C (second compound 1 µM, first compound 0.1 µM): 48.6%; viability, T/C (second compound 1 µM, first compound 0.316 µM): 15.4%; viability, T/C (second compound 1 µM, first compound 1 µM): 11%; viability, T/C (second compound 1 µM, first compound 3.16 µM): 13.4%; viability, T/C (second compound 1 µM, first compound 10 µM): 11.7%; viability, T/C (second compound 3.16 µM, first compound 0.0316 µM): 88.1%; viability, T/C (second compound 3.16 µM, first compound 0.1 µM): 51.1%; viability, T/C (second compound 3.16 µM, first compound 0.316 µM): 20.9%; viability, T/C (second compound 3.16 µM, first compound 1 µM): 10.7%; viability, T/C (second compound 3.16 µM, first compound 3.16 µM): 15.2%; viability, T/C (second compound 3.16 µM, first compound 10 µM): 10.3%; viability, T/C (second compound 10 µM, first compound 0.0316 µM): 91.6%; viability, T/C (second compound 10 µM, first compound 0.1 µM): 52.4%; viability, T/C (second compound 10 µM, first compound 0.316 µM): 14.7%; viability, T/C (second compound 10 µM, first compound 1 µM): 9.37%; viability, T/C (second compound 10 µM, first compound 3.16 µM): 11.2%; viability, T/C (second compound 10 µM, first compound 10 µM): 10.2%

Question: Cc1cccc(N(C)C(=O)C2C(O)CCN2c2nc(C)cc(C(F)(F)F)c2C#N)c1 (centres undefined) was tested. Which viability, T/C (compound 0.0316 µM) did it give?
Answer: The viability, T/C was 106% [middle of 13 runs].

Question: What about the viability, T/C (compound 0.1 µM) of the same compound?
Answer: The viability, T/C was 108% [middle of 13 runs].

Question: And the viability, T/C (compound 0.316 µM)?
Answer: The viability, T/C was 107% [middle of 13 runs].

Question: And the viability, T/C (compound 1 µM)?
Answer: The viability, T/C was 100% [middle of 13 runs].

Question: And the viability, T/C (compound 3.16 µM)?
Answer: The viability, T/C was 104% [middle of 13 runs].

Question: What about the viability, T/C (compound 10 µM) of the same compound?
Answer: Its viability, T/C is 107% [middle of 13 runs].

Question: And the IC50 (compound alone, run of 10/31/2023)?
Answer: The IC50 was over 10000 nM.

Question: And the IC50 (compound alone, run of 11/06/2023)?
Answer: Its IC50 is over 10000 nM.
